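Exposure lasted 48 hours, with cells grown in 96-well plates and compounds tested at five concentrations. GI50 is the concentration that inhibits growth by half.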 The source made the active and inactive calls. Rule as the data show it: active = GI50 up to about 1.1 µM and inactive = higher.
Experiments:
Assay in all cases: inhibition of tumour cell growth, NCI panel, 48 h
SW-620 = tested on: SW-620
NCI-H522 = tested on: NCI-H522
NCI-H23 = tested on: NCI-H23
U-251 = tested on: U-251
EKVX = tested on: EKVX
UACC-257 = tested on: UACC-257
MDA-MB-231 = tested on: MDA-MB-231
COLO 205 = tested on: COLO 205
SK-OV-3 = tested on: SK-OV-3
SF-295 = tested on: SF-295
NCI/ADR-RES = tested on: NCI/ADR-RES
OVCAR-3 = tested on: OVCAR-3
HCT-116 = tested on: HCT-116
CCRF-CEM = tested on: CCRF-CEM
A498 = tested on: A498
OVCAR-4 = tested on: OVCAR-4
UACC-62 = tested on: UACC-62
TK-10 = tested on: TK-10
Hs-578T = tested on: Hs-578T
IGROV-1 = tested on: IGROV-1
Malme-3M = tested on: Malme-3M
KM12 = tested on: KM12
ACHN = tested on: ACHN
RXF 393 = tested on: RXF 393
MOLT-4 = tested on: MOLT-4
786-0 = tested on: 786-0
SK-MEL-28 = tested on: SK-MEL-28
PC-3 = tested on: PC-3
OVCAR-5 = tested on: OVCAR-5
HCT-15 = tested on: HCT-15
NCI-H226 = tested on: NCI-H226
SK-MEL-5 = tested on: SK-MEL-5
UO-31 = tested on: UO-31
SR = tested on: SR
BT-549 = tested on: BT-549
SF-268 = tested on: SF-268
HOP-62 = tested on: HOP-62
MCF7 = tested on: MCF7
DU-145 = tested on: DU-145
OVCAR-8 = tested on: OVCAR-8
SN12C = tested on: SN12C
MDA-N = tested on: MDA-N
A549 = tested on: A549
HOP-92 = tested on: HOP-92
SNB-19 = tested on: SNB-19
K562 = tested on: K562
RPMI-8226 = tested on: RPMI-8226
SF-539 = tested on: SF-539
NCI-H460 = tested on: NCI-H460
HCC 2998 = tested on: HCC 2998
SK-MEL-2 = tested on: SK-MEL-2
LOX IMVI = tested on: LOX IMVI
MDA-MB-435 = tested on: MDA-MB-435
CAKI-1 = tested on: CAKI-1
HT-29 = tested on: HT-29
HL-60 = tested on: HL-60
T47D = tested on: T47D
SNB-75 = tested on: SNB-75
M14 = tested on: M14

CC(C)C(=O)/C=C/c1ccc(Cl)cc1Cl
GI50 (SW-620): 3.1 µM (inactive) | GI50 (NCI-H522): 10.8 µM (inactive) | GI50 (NCI-H23): 13.7 µM (inactive) | GI50 (U-251): 12.6 µM (inactive) | GI50 (EKVX): 16.8 µM (inactive) | GI50 (UACC-257): 13.3 µM (inactive) | GI50 (MDA-MB-231): 23.9 µM (inactive) | GI50 (COLO 205): 18.5 µM (inactive) | GI50 (SK-OV-3): 19.6 µM (inactive) | GI50 (SF-295): 16.9 µM (inactive) | GI50 (NCI/ADR-RES): 20.1 µM (inactive) | GI50 (OVCAR-3): 4.63 µM (inactive) | GI50 (HCT-116): 2.65 µM (inactive) | GI50 (CCRF-CEM): 5.09 µM (inactive) | GI50 (A498): 17.9 µM (inactive) | GI50 (OVCAR-4): 6.75 µM (inactive) | GI50 (UACC-62): 13 µM (inactive) | GI50 (TK-10): 14.2 µM (inactive) | GI50 (Hs-578T): 3.51 µM (inactive) | GI50 (IGROV-1): 14.8 µM (inactive) | GI50 (Malme-3M): 14.8 µM (inactive) | GI50 (KM12): 4.06 µM (inactive) | GI50 (ACHN): 16.2 µM (inactive) | GI50 (RXF 393): 8.79 µM (inactive) | GI50 (MOLT-4): 8.15 µM (inactive) | GI50 (786-0): 14.2 µM (inactive) | GI50 (SK-MEL-28): 16.5 µM (inactive) | GI50 (PC-3): 18.7 µM (inactive) | GI50 (OVCAR-5): 16.9 µM (inactive) | GI50 (HCT-15): 12.2 µM | GI50 (NCI-H226): 13.2 µM (inactive) | GI50 (SK-MEL-5): 14.5 µM (inactive) | GI50 (UO-31): 11.4 µM (inactive) | GI50 (SR): 6.61 µM (inactive) | GI50 (BT-549): 4.41 µM (inactive) | GI50 (SF-268): 6.93 µM (inactive) | GI50 (HOP-62): 18.5 µM (inactive) | GI50 (MCF7): 3.62 µM (inactive) | GI50 (DU-145): 14.2 µM (inactive) | GI50 (OVCAR-8): 10.5 µM (inactive) | GI50 (SN12C): 10.7 µM (inactive) | GI50 (MDA-N): 2.96 µM (inactive) | GI50 (A549): 14.8 µM (inactive) | GI50 (HOP-92): 16.8 µM (inactive) | GI50 (SNB-19): 15.8 µM (inactive) | GI50 (K562): 5.37 µM (inactive) | GI50 (RPMI-8226): > 100 µM (inactive) | GI50 (SF-539): 18.4 µM (inactive) | GI50 (NCI-H460): 11.3 µM (inactive) | GI50 (HCC 2998): 16.4 µM (inactive) | GI50 (SK-MEL-2): 14.2 µM (inactive) | GI50 (LOX IMVI): 3.55 µM (inactive) | GI50 (MDA-MB-435): 2.99 µM (inactive) | GI50 (CAKI-1): 12.2 µM (inactive) | GI50 (HT-29): 3.99 µM (inactive) | GI50 (HL-60): 7.05 µM (inactive) | GI50 (T47D): 13 µM (inactive) | GI50 (SNB-75): 14.4 µM (inactive) | GI50 (M14): 8.28 µM (inactive)

From ChEMBL document CHEMBL1201862, “PubChem BioAssay data set” (2004)
